Data set [1] is filed under the species Mus musculus. Put plainly: Inhibition of PI3K in mouse lung fibroblast assessed as reduction in pAkt level at 10 uM after 1 hr by Western blotting analysis. In general terms: Immunoblotting shows a protein as a band on a membrane.
In data set [2] the target is Dual specificity mitogen-activated protein kinase kinase 1 (Mus musculus) (UniProt P31938). The data set can be described thus: Inhibition of MEK1 in mouse lung fibroblast assessed as reduction in pErk1/2 level at 10 uM after 1 hr by Western blotting analysis.
Dual specificity mitogen-activated protein kinase kinase 1 (Mus musculus), sequence (P31938 whole entry): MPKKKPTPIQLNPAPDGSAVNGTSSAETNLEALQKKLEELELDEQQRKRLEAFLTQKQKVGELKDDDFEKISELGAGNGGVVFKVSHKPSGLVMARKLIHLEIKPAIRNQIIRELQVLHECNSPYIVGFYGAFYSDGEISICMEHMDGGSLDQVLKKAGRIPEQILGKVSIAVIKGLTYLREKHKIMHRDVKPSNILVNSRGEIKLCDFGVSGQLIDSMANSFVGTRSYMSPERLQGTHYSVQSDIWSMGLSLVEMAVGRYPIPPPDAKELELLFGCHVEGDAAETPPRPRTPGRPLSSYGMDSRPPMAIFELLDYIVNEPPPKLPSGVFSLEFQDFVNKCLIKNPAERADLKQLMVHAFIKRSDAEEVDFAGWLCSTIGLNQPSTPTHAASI
In data set [3] the test system is A549. Put plainly: Inhibition of PI3K in human A549 cells assessed as reduction in pAkt level at 10 uM after 1 hr by Western blotting analysis. The data set is classed as cell-based.
For data set [4], the system named is PANC-1. Put plainly: Inhibition of PI3K in human PANC1 cells assessed as reduction in pAkt level at 10 uM after 1 hr by Western blotting analysis. Type of data set: cell-based.
Data set [5] relates to A549. The data set can be described thus: Inhibition of PI3K in human A549 cells assessed as reduction in pAkt level at 25 uM after 1 hr by Western blotting analysis. Type of data set: cell-based.
In data set [6] the target is T1, Dual specificity mitogen-activated protein kinase kinase 1 (Homo sapiens, UniProt Q02750). The data set can be described thus: Inhibition of MEK1 in human PANC1 cells assessed as reduction in pErk1/2 level at 25 uM after 1 hr by Western blotting analysis. The data set is classed as cell-based. The settings on record: PANC-1.
T1 sequence (Q02750 whole entry): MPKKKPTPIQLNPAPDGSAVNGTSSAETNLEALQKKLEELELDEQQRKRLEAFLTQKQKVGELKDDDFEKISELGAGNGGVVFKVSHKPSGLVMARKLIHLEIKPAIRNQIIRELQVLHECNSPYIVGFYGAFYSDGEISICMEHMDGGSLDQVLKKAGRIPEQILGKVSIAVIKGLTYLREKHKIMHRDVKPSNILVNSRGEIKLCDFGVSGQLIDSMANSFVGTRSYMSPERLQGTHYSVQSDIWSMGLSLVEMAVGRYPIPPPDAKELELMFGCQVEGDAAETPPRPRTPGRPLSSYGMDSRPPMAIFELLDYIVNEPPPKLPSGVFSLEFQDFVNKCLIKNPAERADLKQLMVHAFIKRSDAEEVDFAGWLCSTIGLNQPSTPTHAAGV
Data set [7] concerns the target T1, Dual specificity mitogen-activated protein kinase kinase 1. Put plainly: Inhibition of MEK1 in human PANC1 cells assessed as reduction in pErk1/2 level after 1 hr by Western blotting analysis. The data set is classed as cell-based. The conditions noted are these: PANC-1.
For data set [8], the species on record is Mus musculus. The data set can be described thus: Inhibition of PI3K in mouse lung fibroblast assessed as reduction in pAkt level after 1 hr by Western blotting analysis.
In data set [9] the test system is PANC-1. The data set can be described thus: Inhibition of PI3K in human PANC1 cells assessed as reduction in pAkt level after 1 hr by Western blotting analysis. The data set is classed as cell-based.
Data set [10] concerns A549. Put plainly: Inhibition of PI3K in human A549 cells assessed as reduction in pAkt level after 1 hr by Western blotting analysis. Type of data set: cell-based.
Data set [11] has as its target Dual specificity mitogen-activated protein kinase kinase 1 (Mus musculus) (UniProt P31938). The data set can be described thus: Inhibition of MEK1 in mouse lung fibroblast assessed as reduction in pErk1/2 level after 1 hr by Western blotting analysis.
The species named for data set [12] is Mus musculus. The data set can be described thus: Inhibition of PI3K in mouse lung fibroblast assessed as reduction in pAkt level at 25 uM after 1 hr by Western blotting analysis.
In data set [13] the target is Protein kinase C alpha type (Homo sapiens, UniProt P17252). Put plainly: Inhibition of PKC-alpha (unknown origin).
The target of data set [14] is T1, Dual specificity mitogen-activated protein kinase kinase 1. The data set can be described thus: Inhibition of MEK1 in human A549 cells assessed as reduction in pErk1/2 level at 25 uM after 1 hr by Western blotting analysis. The data set is classed as cell-based.
For data set [15], the target named is Dual specificity mitogen-activated protein kinase kinase 1 (Mus musculus) (UniProt P31938). The data set can be described thus: Inhibition of MEK1 in mouse lung fibroblast assessed as reduction in pErk1/2 level at 25 uM after 1 hr by Western blotting analysis.
Data set [16] deals with Epidermal growth factor receptor (Homo sapiens, UniProt P00533). Put plainly: Inhibition of EGFR (unknown origin).
Epidermal growth factor receptor, sequence (P00533 whole entry): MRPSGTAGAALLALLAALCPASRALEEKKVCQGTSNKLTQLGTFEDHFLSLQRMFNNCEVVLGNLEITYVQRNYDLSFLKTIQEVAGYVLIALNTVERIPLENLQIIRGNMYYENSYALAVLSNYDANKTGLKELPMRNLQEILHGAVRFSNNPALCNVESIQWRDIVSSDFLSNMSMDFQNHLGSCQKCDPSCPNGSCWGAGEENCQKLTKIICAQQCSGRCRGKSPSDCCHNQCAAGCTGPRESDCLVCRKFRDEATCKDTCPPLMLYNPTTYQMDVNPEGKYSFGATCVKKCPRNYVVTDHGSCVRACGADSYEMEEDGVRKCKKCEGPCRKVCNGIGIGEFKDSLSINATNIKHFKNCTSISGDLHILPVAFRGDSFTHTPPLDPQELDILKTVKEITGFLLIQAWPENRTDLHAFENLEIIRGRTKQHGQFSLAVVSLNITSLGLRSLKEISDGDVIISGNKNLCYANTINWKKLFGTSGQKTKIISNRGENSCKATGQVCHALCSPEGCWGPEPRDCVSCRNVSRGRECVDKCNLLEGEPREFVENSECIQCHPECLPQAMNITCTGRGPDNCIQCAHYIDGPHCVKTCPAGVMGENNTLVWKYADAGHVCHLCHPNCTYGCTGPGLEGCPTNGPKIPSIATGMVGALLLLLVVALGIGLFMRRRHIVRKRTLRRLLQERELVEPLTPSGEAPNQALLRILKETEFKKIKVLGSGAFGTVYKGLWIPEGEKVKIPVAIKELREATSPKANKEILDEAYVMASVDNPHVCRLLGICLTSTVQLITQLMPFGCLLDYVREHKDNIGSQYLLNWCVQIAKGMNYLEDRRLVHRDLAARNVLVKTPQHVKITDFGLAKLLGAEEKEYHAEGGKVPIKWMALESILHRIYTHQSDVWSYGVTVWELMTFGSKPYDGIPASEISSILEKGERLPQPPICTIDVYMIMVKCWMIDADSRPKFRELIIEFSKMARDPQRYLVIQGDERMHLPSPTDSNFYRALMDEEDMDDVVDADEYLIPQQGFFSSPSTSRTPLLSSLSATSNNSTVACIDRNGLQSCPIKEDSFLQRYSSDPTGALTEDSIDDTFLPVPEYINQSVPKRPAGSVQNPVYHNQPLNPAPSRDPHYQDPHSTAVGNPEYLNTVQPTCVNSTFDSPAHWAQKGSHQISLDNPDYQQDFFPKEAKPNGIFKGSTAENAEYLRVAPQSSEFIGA
Data set [17] concerns the target T1, Dual specificity mitogen-activated protein kinase kinase 1. Put plainly: Inhibition of MEK1 in human A549 cells assessed as reduction in pErk1/2 level after 1 hr by Western blotting analysis. The data set is classed as cell-based.
In data set [18] the test system is A549. Put plainly: Cytotoxicity against human A549 cells at 10 to 25 uM after 24 hrs by Alamar Blue assay. The data set is classed as functional. On the technique in general: The colour change of resazurin is a common sign of viable cells or microbes.
A short description of data set [19]: Cytotoxicity against human PANC1 cells at 10 to 25 uM after 24 hrs by Alamar Blue assay. Type of data set: functional, PANC-1.
Data set [20] is described as follows: Cytotoxicity against mouse lung fibroblast at 10 to 25 uM after 24 hrs by Alamar Blue assay. The data set is classed as cell-based.
Data set [21] deals with Aurora kinase B (Homo sapiens, UniProt Q96GD4). The data set can be described thus: Inhibition of AurB (unknown origin).
Aurora kinase B, sequence (Q96GD4 whole entry): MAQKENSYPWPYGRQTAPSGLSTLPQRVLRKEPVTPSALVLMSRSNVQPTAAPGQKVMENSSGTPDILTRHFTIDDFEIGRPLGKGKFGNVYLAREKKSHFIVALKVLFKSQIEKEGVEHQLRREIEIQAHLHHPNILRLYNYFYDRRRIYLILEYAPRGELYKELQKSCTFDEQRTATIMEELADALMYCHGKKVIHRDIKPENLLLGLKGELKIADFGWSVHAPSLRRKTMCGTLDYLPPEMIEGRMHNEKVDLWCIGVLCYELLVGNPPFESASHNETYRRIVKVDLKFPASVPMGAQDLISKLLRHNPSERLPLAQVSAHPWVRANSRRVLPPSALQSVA
Data set [22] in a line: Inhibition of ERK (unknown origin). Also noted: species or system Homo sapiens.
Data set [23] concerns PANC-1. The data set can be described thus: Inhibition of PI3K in human PANC1 cells assessed as reduction in pAkt level at 25 uM after 1 hr by Western blotting analysis. The data set is classed as cell-based.
The nature of data set [24]: Inhibition of PI3K (unknown origin) by TR-FRET assay. The arrangement: species or system Homo sapiens. Background: Time-resolved FRET reads energy transfer from a long-lived donor to a nearby acceptor.

Activity calls are given as the source filed them. No cut-off for these calls is given here.

Regarding `O=C(NOC[C@H](O)CO)c1ccc(F)c(F)c1Nc1ccc(I)cc1F`, the inhibition result in data set [1], in [3] and in data set [4] was “inactive” each time. The inhibition result in data set [2] was “Active”.

Take `FC(F)c1nc2ccccc2n1-c1nc(N2CCOCC2)nc(N2CCOCC2)n1`: the inhibition entry in data set [1], in [3] and in data set [4] was “Active” in each case. For the same compound, the inhibition result in data set [2] is “inactive”.

For `Cc1c(Cc2cccc(N(C)S(=O)(=O)CCCNCCCCCC(=O)N3CCN(c4nc(N5CCOCC5)nc(-n5c(C(F)F)nc6ccccc65)n4)CC3)c2)c(=O)oc2cc(OC(=O)N(C)C)ccc12`, the inhibition result in data set [5], in data set [6], in [12], in [14], in [15] and in data set [23] was “Active” each time. For the same compound, the inhibition entry in data set [7], in data set [8], in [9], in data set [10], in data set [11] and in data set [17] was “Dose-dependent effect” each time. For the same compound, the IC50 (in general, the concentration at which inhibition is half-maximal) is over 10 µM in data set [13]; over 10 µM in data set [16]; over 10 µM in [21]; over 10 µM in data set [22]; 0.172 µM in data set [24]. Moreover, the Activity in data set [18] is given as 50%; in [19] it was 50%; in data set [20], “Non-toxic”.

In data set [24], `NCCCCCC(=O)N1CCN(c2nc(N3CCOCC3)nc(-n3c(C(F)F)nc4ccccc43)n2)CC1` yielded an IC50 of under 0.1 µM.

In [24], `O=C(CCCCC[N+](=O)[O-])N1CCN(c2nc(N3CCOCC3)nc(-n3c(C(F)F)nc4ccccc43)n2)CC1` came in with an IC50 of over 1 µM.

For `CNS(=O)(=O)Nc1nccc(Cc2c(C)c3ccc(Oc4ncccn4)cc3oc2=O)c1F`, the inhibition entry in data set [1], in [3] and in data set [4] was “inactive” each time. In addition, in data set [2], the inhibition entry is “Active”.

Source of the values: ChEMBL document CHEMBL3399976, “Dual inhibition of allosteric mitogen-activated protein kinase (MEK) and phosphatidylinositol 3-kinase (PI3K) oncogenic targets with a bifunctional inhibitor” (Bioorg Med Chem, 2015).
